Measured values as given in patent publication US7279498B2, “Substituted aryl amides as IP antagonists” (Roche Palo Alto LLC, priority 2003, dated 2007).

Key:
hERG potassium channel = biological target: T1, hERG potassium channel (Homo sapiens, UniProt Q12809); assay: hERG Potassium Channel Pharmacology Screening (whole-cell patch-clamp, CHO-K1 cells); assay type: cell-based; settings: CHO-K1 cells expressing recombinant human hERG channel, read-out: hERG outward current inhibition percentage
T1 construct: expressed in transfected cells; host or cells: CHO-K1 cells
Description: The effects of the subject compounds on recombinant hERG potassium channels expressed in CHO-K1 cells was determined according to the procedure reported by Hamill et al., 1981, Pflügers Arch., 391, 85–100
The following solutions were used to isolate potassium currents in cultured cell lines: extracellular (in mM), NaCl (150), KCl (4), HEPES (10), CaCl2 (1.2), MgCl2 (1), adjusted to pH 7.4 with NaOH; intracellular (in mM), KCl (140), HEPES (10), EGTA (5), MgCl2 (6), ATP-Na2 (5), adjusted to pH 7.2 with KOH.
Whole-cell patch-clamp methods were used to record potassium currents from CHO.K1 cells expressing the human hERG channel. Each cell was held at a negative holding potential of −80 mV. […] Peak tail current amplitudes at the different test potentials were measured to obtain the current-voltage relationship.
A second protocol was used to investigate the effects of compounds on hERG currents. […] Drugs were applied once a stable baseline has been recorded for 5 min. […]
Voltage-dependent potassium currents were recorded from single cells at room temperature (20–22° C.) using the whole-cell configuration of the patch-clamp technique. […]
The peak amplitude of outward currents are measured using Clampfit software to find peak amplitude. […]
Statistics were calculated using Microcal Origin and Prism software, and results were reported as mean+/−standard error of the mean. […]

[1] = biological target: T2, rat prostanoid IP receptor (Rattus norvegicus, UniProt P43253); assay: IP receptor activity assay: cyclic AMP accumulation (cAMP Flashplate) in CHO cells; assay type: cell-based; settings: CHO cells expressing the rat prostanoid IP receptor
T2 construct: expressed in transfected cells; host or cells: Chinese Hamster Ovary cells (kept under geneticin)
Description: The IP receptor agonist potency of compounds of this invention in vitro was determined by measuring the agonist-mediated cyclic AMP accumulation in an assay utilizing Chinese Hamster Ovary cells expressing the rat prostanoid IP receptor. Cyclic AMP levels were determined using a commercially available Adenylate Cyclase cAMP Flashplate Assay.
Chinese Hamster Ovary cells expressing the rat prostanoid IP receptor were maintained in Ham's Mixture with 10% fetal bovine serum, […] geneticin in 5% carbon dioxide ([…]). Cells were harvested at approximately 90% confluency using Dulbecco's Phosphate-Buffered saline containing 2 mM EDTA, and washed once at 1000×g and resuspended in Wash Buffer. A sample was aliquoted for protein determination. The cell suspension was centrifuged at 1000×g and adjusted to 110–140 E+3 cells/50 μl in the “Stimulation and Detection Buffer” from the assay kit.
The test compounds or vehicle were incubated with 50 μl cells (110–140 E+3 cells) for 5 minutes at room temperature. After the incubation, 100 μl lysis/tracer solution was added to the wells and the radioactivity counted on a Packard Topcount microplate scintillation counter after overnight incubation. The amount of radioactive cAMP bound to the antibody is inversely proportional to the concentration of added non-radioactive cAMP. […]

T1 sequence (Q12809 whole entry): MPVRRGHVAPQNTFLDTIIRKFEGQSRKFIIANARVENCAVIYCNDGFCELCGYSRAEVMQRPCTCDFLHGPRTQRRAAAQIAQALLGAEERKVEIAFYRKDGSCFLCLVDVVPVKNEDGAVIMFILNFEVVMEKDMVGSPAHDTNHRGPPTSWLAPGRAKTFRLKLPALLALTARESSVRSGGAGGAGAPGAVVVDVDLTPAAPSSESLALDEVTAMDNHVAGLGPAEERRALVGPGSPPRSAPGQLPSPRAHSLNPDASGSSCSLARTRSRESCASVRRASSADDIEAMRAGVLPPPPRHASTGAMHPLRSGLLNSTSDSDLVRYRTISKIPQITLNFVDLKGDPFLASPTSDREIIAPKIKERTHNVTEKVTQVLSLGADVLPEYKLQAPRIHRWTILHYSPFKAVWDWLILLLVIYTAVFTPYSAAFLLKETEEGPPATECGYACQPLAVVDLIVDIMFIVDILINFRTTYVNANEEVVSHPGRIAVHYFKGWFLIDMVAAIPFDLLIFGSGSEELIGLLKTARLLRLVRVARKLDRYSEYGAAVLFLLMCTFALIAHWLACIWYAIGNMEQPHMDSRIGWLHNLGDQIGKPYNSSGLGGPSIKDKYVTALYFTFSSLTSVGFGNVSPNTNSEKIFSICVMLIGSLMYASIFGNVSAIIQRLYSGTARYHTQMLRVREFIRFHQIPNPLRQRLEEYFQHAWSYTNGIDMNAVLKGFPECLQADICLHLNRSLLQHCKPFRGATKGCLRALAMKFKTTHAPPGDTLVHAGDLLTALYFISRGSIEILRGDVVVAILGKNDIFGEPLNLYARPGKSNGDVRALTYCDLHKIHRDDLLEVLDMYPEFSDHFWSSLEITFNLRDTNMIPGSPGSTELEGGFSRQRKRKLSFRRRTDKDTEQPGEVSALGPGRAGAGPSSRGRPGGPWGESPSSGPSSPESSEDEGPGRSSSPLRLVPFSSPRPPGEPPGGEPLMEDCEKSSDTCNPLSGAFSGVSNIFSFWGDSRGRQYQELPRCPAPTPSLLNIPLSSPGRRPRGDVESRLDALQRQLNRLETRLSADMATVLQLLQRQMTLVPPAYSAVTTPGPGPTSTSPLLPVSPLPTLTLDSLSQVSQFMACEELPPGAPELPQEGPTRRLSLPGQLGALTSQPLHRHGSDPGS
T2 sequence (P43253 whole entry): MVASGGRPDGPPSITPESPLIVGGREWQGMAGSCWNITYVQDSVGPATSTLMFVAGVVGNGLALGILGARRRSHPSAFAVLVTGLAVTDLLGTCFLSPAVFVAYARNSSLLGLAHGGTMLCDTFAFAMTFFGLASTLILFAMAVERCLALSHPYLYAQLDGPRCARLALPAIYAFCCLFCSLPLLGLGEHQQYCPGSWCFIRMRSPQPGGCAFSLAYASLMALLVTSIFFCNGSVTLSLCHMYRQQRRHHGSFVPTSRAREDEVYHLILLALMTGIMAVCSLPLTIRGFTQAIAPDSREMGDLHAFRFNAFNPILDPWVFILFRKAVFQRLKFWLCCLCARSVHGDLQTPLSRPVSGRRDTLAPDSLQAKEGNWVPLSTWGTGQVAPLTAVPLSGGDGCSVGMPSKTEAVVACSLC

Ki [1]: ~7.59 nM
SMILES: COc1ccc(C(=O)NCc2ccc(NC3=NCCN3)cc2)cc1 [compound 96, N-[4-(4,5-Dihydro-1H-imidazol-2-yl-amino)-benzyl]-4-methoxy-benzamide]
inhibition at 1 µM (hERG potassium channel; pH 7.4, at 1 uM): 4.3 ± 4.4%
inhibition at 10 µM (hERG potassium channel; pH 7.4, at 10 uM): 10.8 ± 7.2%
